Experimental data published in patent US11639345B2, “Methionine metabolic pathway inhibitors” (MIGAL—GALILEE RESEARCH INSTITUTE LTD., priority 2018, dated 2023).

Legend:
Arabidopsis thaliana = Arabidopsis thaliana root growth inhibition; type: in vivo; details: 168 h, root length ratio vs DMSO control, 50 μM compound, lower values indicate shorter root, larger effect, read-out: Arabidopsis (relative to DMSO)
Protocol: Finally, FIGS. 7a-7o are the photos of the Arabidopsis thaliana plants and the inhibition of their roots growth by the compounds of the present invention. These experiments were conducted as follows. Seeds were washed with 70% ethanol for one minute and then with sterile water. Sterilisation was performed with 50% bleaching solution (3%) and 0.2% Triton x-100 for ten minutes followed by a five-time wash with sterile water. The seeds were placed in six well-plates with half Murashige and Skoog medium (MS; Duchefa, Haarlem, Netherlands), containing 1% sucrose (w/v), pH 5.8. The plates with Arabidopsis thaliana seeds were placed at 4° C. for two days and then transferred for seven days to growth chamber (22±2° C.) at day/light cycles of 16/8 h. The plates were placed vertically. In each plate, a control including 0.1% DMSO in the medium was added. The compounds of the present invention were tested for their herbicidal efficiency by diluting 1000 times a 50 mM stock in DMSO leading to a final concentration of 50 μM with 0.1% DMSO.
In Tables 1, 2 and 4 above, Arabidopsis root length was measured after addition of 50-μM compound compared with the negative control (DMSO) treatment. Length values indicate the ratio between non-treated plates ([…]) and the length after the addition of 50 uM of each compound. Lower values indicate shorter root length, and consequently, larger effect.

Roquette = Roquette assay spray; type: in vivo
Tobacco CGS [1] = target: T1, Tobacco CGS (Nicotiana tabacum, UniProt Q9ZPL5); assay: Micro Scale Thermophoresis (MST) direct binding to CGS; parameters: 6xHIS (N, cleaved yes); GB1 solubility tag (N, cleaved yes); made in house; host or cells: E. coli BL21; details: score 0-5; binding to labelled Tobacco CGS
T1 sequence (Q9ZPL5 79-540): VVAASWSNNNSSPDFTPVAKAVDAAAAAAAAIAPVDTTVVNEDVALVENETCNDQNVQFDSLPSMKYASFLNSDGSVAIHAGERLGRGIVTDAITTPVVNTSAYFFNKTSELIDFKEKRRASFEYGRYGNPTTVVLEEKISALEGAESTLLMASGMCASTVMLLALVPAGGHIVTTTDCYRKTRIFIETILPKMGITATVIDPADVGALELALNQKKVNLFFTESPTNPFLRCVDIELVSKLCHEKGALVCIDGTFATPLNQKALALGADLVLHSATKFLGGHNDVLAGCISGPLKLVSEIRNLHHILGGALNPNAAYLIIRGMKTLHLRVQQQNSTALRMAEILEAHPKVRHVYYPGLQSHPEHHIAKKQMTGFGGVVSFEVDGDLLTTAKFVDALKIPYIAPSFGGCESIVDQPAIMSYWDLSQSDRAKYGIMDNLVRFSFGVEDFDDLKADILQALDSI
Protocol: The direct binding of the compounds of the embodiments to the CGS was tested by Micro Scale Thermophoresis (MST). In the MST assay, the CGS protein was labelled with a fluorophore, the samples were heated, and changes in fluorescence were measured as a function of the ligand concentration. In the MST assay, similar to the expression and purification described above, the recombinant Tobacco CGS protein was expressed in E. coli BL21 cells and purified to homogeneity. For that particular purpose, the pET-11 vector containing the DNA sequence of Tobacco CGS with an N-terminus […] tag followed by a TEV-cleavable GB1 solubility tag was cloned and transformed into the bacteria cells. Cells were cultured to OD=0.8, and protein expression was induced by the addition of 1 mM IPTG. The cells were cultured for additional 16 hours temperature 25° C. Following cellular lysis, the soluble fraction was passed through the nickel column and the bound HIS-tagged protein was eluted by 300 mM imidazole. Then, the tags […] and GB1 were cleaved in dialysis o/n and the mixtures passed again through the nickel column to separate the CGS from the TEV and HIS-GB1 constructs. As a final step the CGS was run on S75 size exclusion chromatography. Thus, the MST assay was performed to measure the biding of the compounds to the CGS protein. For this purpose, the CGS was labelled with commercially available amine reactive fluorophore (Cat # MO-[…], NanoTemper) according to the manufacture instructions. The MST binding curves were then measured using the Monolith NT.115 apparatus by incubating the labelled protein with the indicated compounds in a dose-response manner.

[2] = system: E. coli lacking the endogenic MetB CGS gene, transformed to express the CGS from Arabidopsis; assay: Growth of engineered E. coli expressing Arabidopsis CGS in M9 minimal media, with and without methionine; type: cell-based; details: for E. coli Assay LE395 (0-5): score 0-5, growth of E. coli with Arabidopsis CGS gene in M9 minimal media; for E. coli specificity (MOA): score, growth with vs without external methionine (40 mg/L)
Protocol: In addition to the direct binding evaluation, specific assay to test the compounds activity and specificity were also developed. In this assay, E. coli cells, lacking the endogenic MetB CGS gene and transformed to express the CGS from Arabidopsis, were used. These cells were grown on M9 minimal media with and without external methionine supplemented to the cells, in the presence of the compounds of the embodiments. These selected compounds of the embodiments, capable of inhibiting the cell growth on M9, but incapable of affecting the cell growth when supplemented with methionine, were validated as methionine-pathway specific inhibitors.
In this assay, Methionine auxotroph E. coli mutant was transformed with PQE-30 vector containing the Arabidopsis CGS gene as previously described in Yael Hacham et al., Plant Physiol., February 2002, 128(2): 454-462. In order to test the effect of the small molecule inhibitors on the CGS and methionine pathway, growth curves of the E. coli in M9 minimal media with […] were measured with and without the addition of external methionine (40 mg/L) in the presence of variable compound concentrations. E. coli growth curves were measured by following the optical density at 600 nm of bacteria in 96 well-plate placed within Tecan M200 plate reader in orbital shaking mode at 37° C. The slope of each curve was estimated using the ‘linest’ function in Excel.

Tobacco CGS [3] = target: T1, Tobacco CGS; assay: Malachite Green Phosphate assay of direct CGS activity; type: biochemical; parameters: 6xHIS (cleaved yes); GB1 solubility tag (cleaved yes); made in house; host or cells: E. coli BL-21; details: 2 h; 50 μM compound, 1 μM CGS, two-hour incubation at 25° C.; read-out: Malachite Green Phosphate Assay (% to DMSO, 50 μM)
Protocol: As discussed above, the first reaction in methionine biosynthesis in plants is catalyzed by the CGS enzyme. In this reaction, the formation of cystathionine is conducted by the γ-replacement of the phosphoryl substituent of O-phospho-homoserine by cysteine and consecutive release of an orthophosphate group.
Expression of recombinant CGS was done by transforming the pET-11 vector containing the DNA sequence of Tobacco CGS with a 6xHIS tag and GB1 solubility tag followed by TEV cleavage site into BL-21 cells. These cells were cultured at 37° C. and optical density (OD)=0.8 protein at 600 nm, and the expression was induced by addition of 1 mM IPTG for 16 hours at 25° C. The protein was purified to homogeneity onto nickel column and cleaved by o/n dialysis with the TEV protease. A second nickel column was used to separate the cleaved CGS from the TEV and GB1 solubility tag.
The direct activity of CGS was tested using the Malachite Green Phosphate Assay Kit (Sigma-Aldrich, cat # MAK307-1KT). It is a highly sensitive and robust experiment used to measure the release of free orthophosphate group based on quantification of the green-coloured complex formed between Malachite Green, molybdate, and free orthophosphate. The rapid colour formation from the reaction can be conveniently measured on a spectrophotometer via the absorbance at 620 nm.
The assay mixture (100 μl) contained 50 mM MOPS—NaOH (pH 7.5), 150 mM NaCl, 0.1 mM PLP and 1 μM purified CGS. The compounds of the present invention were added at a final concentration of 50 μM and reactions were initiated by adding 2 mM cysteine and 3 mM O-phospho-L-homo-serine. After two-hour incubation at 25° C., 80 μL of each sample were transferred into a new 96 well-plate containing 20 μl of Malachite Green Reagent and incubated for additional 30 min at 25° C. Colour development was measured by a plate reader Tecan M200 (620 nm).

| SMILES | activity at 50 µM (Arabidopsis thaliana) | Roquette assay spray (single average) (Roquette) | Roquette assay spray (twice average) (Roquette) | TEV (relative to DMSO) (TEV (relative to DMSO)) | MST Tobacco (0-5) (Tobacco CGS [1]) | E. coli Assay LE395 (0-5) [2] | E. coli specificity (MOA) [2] | remaining activity at 50 µM (Tobacco CGS [3]) |
| --- | --- | --- | --- | --- | --- | --- | --- | --- |
| Cc1cc(O)nc(C(=O)Nc2cccc(-c3nc(C)cc(O)n3)c2)c1 [IML-64] | 20% | 1.0 | 2.0 | 0.65 | 4 | 2 | 4 | 15.2% |
| CCc1nc(-c2cncc(NC(=O)c3cccc(OC)c3)c2)no1 [IML-229] | 10% | – | – | 0.44 | – | – | – | 19.6% |
| O=C(O)C1CN(C(=O)c2cnn(-c3ccccc3)c2)c2ccccc21 (stereo not shown) [IML-162] | 38% | 2.0 | – | 0.20 | – | 3 | 5 | – |
| Cc1cc(O)nc(-c2cccc(NC(=O)c3c(O)cccc3F)c2)n1 [IMS-220] | – | – | – | – | 3 | 4 | 5 | 15.9% |
| O=C(Nc1cccc(-c2csc(Nc3ccc(C(=O)O)c(O)c3)n2)c1)c1ccccc1 [IML-219] | – | – | – | – | 4 | 1 | 5 | 28.3% |
| CCc1nc(-c2cc(CC(=O)O)cc(NC(=O)c3cccc(OC)c3)c2)no1 [IML-228] | – | – | – | – | – | – | – | 27.4% |
| CCc1nc(-c2cccc(NC(=O)c3cccc(OC)c3)c2)no1 [IML-215] | 6% | 1.0 | 2.0 | 0.39 | 2 | 3 | 3 | 12.8% |
| O=C(O)C1CN(C(=O)c2cc(-c3ccccc3)on2)c2ccccc21 (stereo not shown) [IML-124] | 0% | – | 3.0 | 0.30 | – | 2 | 5 | – |
| O=C(O)C1Cc2ccccc2N1C(=O)c1cc(-c2ccccc2)on1 (stereo not shown) [IML-163] | 0% | – | 4.0 | 0.31 | – | 4 | 5 | – |
| CCc1noc(-c2cccc(NC(=O)c3cccc(OC)c3)c2)n1 [IML-216] | 20% | 2.0 | 2.0 | 0.57 | 2 | 3 | 5 | – |
| O=C(O)C1CN(C(=O)c2cc(-c3cccnc3)on2)c2ccccc21 (stereo not shown) [IML-180] | 58% | – | – | 0.25 | 3 | 1 | 5 | – |
| CCn1cc(-c2cccc(NC(=O)c3cccc(OC)c3)c2)nn1 [IML-230] | 29% | – | 1.0 | – | – | – | – | 21.7% |
| COc1cccc(C(=O)Nc2cccc(-c3cn(Cc4ccccc4)nn3)c2)c1 [IML-69] | 22% | 1.0 | 2.0 | 0.71 | 5 | – | – | 30% |
| COc1ccc(Cc2nc(-c3cccc(NC(=O)c4cccc(F)c4)c3)no2)cc1 [IML-220] | – | – | – | – | – | 3 | 5 | 10.8% |
